From patent US20070060558A1 (PALUMED S.A., priority 2004, published 2007)
Converted amounts (≈) assume the structure as drawn. Read-outs that look alike come from different tables or passages of the source. Blank lines part the entries; values can stand above or below the compound they belong to. Starred links: 1 amine or outer side, 2 acyl side, 3 side chain; linkers in the order of their positions; H or OH if unused. Positions of bridges follow the written chain, without caps; N, C: chain ends. Non-standard residues stand in square brackets, D forms with d. Residues, ends and D or L forms follow the SMILES beside them. ξ: configuration not given here. *: point of attachment. X1 = O=C1C[C@@H](C(=O)[*:2])N([*:1])C[C@H]1CSCCNc1ccnc2cc(Cl)ccc12; NMePhe(4-NMe2) = CN[C@@H](Cc1ccc(N(C)C)cc1)C(=O)O; Picolinoyl(3-OH) = O=C(c1ncccc1O)*; ξPhg = NC(C(=O)O)c1ccccc1; dAbu = CC[C@@H](N)C(=O)O

Assays:
[1] = Stability in solution at pH 7 (HPLC purity over time); assay type: physicochemical; details: pH 7, 37° C.
Experimental: (§1) The stability of the aminoquinoline-cephalosporin_hybrid molecules given as examples was determined in solution at 37° C., at physiological pH (pH 7, phosphate buffer/acetonitrile, 75/25 v/v) and at acidic pH (pH 1, 0.1 M HCl/ethanol, 70/30 v/v) by high pressure liquid chromatography coupled to a UV-visible detector (Beckman Coulter ODS C18 column, 5 μm, 4.6×250 mm; eluents: A: 0.1% TFA, B: CH3CN/H2O 90/10 0.1% TFA, gradient: from 10% to 100% of B in 30 minutes, and then 100% of B for 10 minutes, flow rate 1 mL/minutes, λ=254 nm, volume injected: 10 μL).

[2] = Stability in solution at pH 1 (HPLC purity over time); assay type: physicochemical; details: pH 1, 37° C.
Experimental: as §1

[3] = system: Staphylococcus aureus MSSA CIP 4.83; assay: Antibacterial activity (MIC/MBC); assay type: cell-based; details: S. aureus MSSA CIP 4.83
[4] = system: S. pneumoniae PRSP CIP 104471; assay: Antibacterial activity (MIC/MBC); assay type: cell-based, Streptococcus pneumoniae; details: Streptococcus pneumoniae; for MIC: read-out: MIC
[5] = system: S. pneumoniae PRSP clinical isolate; assay: Antibacterial activity (MIC/MBC); assay type: cell-based, Streptococcus pneumoniae; details: Streptococcus pneumoniae; for MIC: PRSP, read-out: MIC
[6] = system: E. faecalis VRE CIP 104676; assay: Antibacterial activity (MIC/MBC); assay type: cell-based, Enterococcus faecalis; details: Enterococcus faecalis, E. faecalis VRE CIP 104676; for MIC: read-out: MIC
H. influenzae CIP 102514 = assay: Antibacterial activity (MIC/MBC); assay type: cell-based, Haemophilus influenzae; details: Haemophilus influenzae, CIP102514
[7] = system: S. aureus MRSA clinical isolate; assay: Antibacterial activity (MIC); assay type: cell-based, Staphylococcus aureus; details: Staphylococcus aureus; S. aureus MRSA clinical isolate; read-out: MIC
[8] = system: S. pneumoniae PSSP CQI 201; assay: Antibacterial activity (MIC); assay type: cell-based, Streptococcus pneumoniae; details: Streptococcus pneumoniae; S. pneumoniae PSSP CQI 201; read-out: MIC
S. pyogenes CIP 56.41T = assay: Antibacterial activity (MIC/MBC); assay type: cell-based, Streptococcus pyogenes; details: Streptococcus pyogenes, CIP56; S. pyogenes CIP 56.41T; read-out: MIC
[9] = system: Human lung fibroblast cells (ATCC CCL-171); assay: Cytotoxicity (MTT) assay; details: for % of survival cells compared to the untreated controls: 18 hr treatment
Experimental: Cellular toxicity was measured by a colorimetric assay that makes use of the tetrazolium salt, MTT. Human lung fibroblast cells (ATCC CCL-171) were plated in 96-well plates at 10^4 cells per well and incubated under 5% CO2 at 37° C. for 24 hr to allow adherence of cells to the plate. Test compounds were prepared as a stock solution at 1 mg/mL in 1% DMSO/water and diluted with water for the serial dilutions (500-7.8 μg/mL). Cells underwent a 18 hr treatment under 5% CO2 at 37° C. with experimental drugs. Corresponding controls received either no drug treatment or treatment with SDS (sodium dodecyl sulfate). The optical density of each sample was read on a microplate spectrophotometer reader at 600 nm and cell survival was expressed as a fraction of that of untreated controls. A drug is said cytotoxic when this fraction is ≦−30%

[10] = Staphylococcus aureus, read-out: MBC
[11] = Staphylococcus aureus, read-out: MIC
[12] = H. influenzae CIP 102514, read-out: MIC

MIC [3, 11]: > 50 µg/mL
MIC [4]: 50 µg/mL (≈ 211 µM)
MIC [5]: 50 µg/mL (≈ 211 µM)
MIC [6]: > 50 µg/mL
MIC (H. influenzae CIP 102514; [12]): 50 µg/mL (≈ 211 µM)
SMILES: O=C(O)CNc1ccnc2cc(Cl)ccc12 [PA 1117, (7-Chloroquinolin-4-ylamino)acetic acid, reference compound]

MIC [3, 11]: 0.31 µg/mL (≈ 0.277 µM)
MIC [7]: 1.25 µg/mL (≈ 1.12 µM)
MIC [8]: 0.31 µg/mL (≈ 0.277 µM)
MIC (S. pyogenes CIP 56.41T): 0.32 µg/mL (≈ 0.286 µM)
SMILES: CC[C@H]1NC(=O)[C@@H](NC(=O)c2ncccc2O)[C@@H](C)OC(=O)C(c2ccccc2)NC(=O)[C@@H]2CC(=O)[C@H](CSCCNc3ccnc4cc(Cl)ccc34)CN2C(=O)[C@H](Cc2ccc(N(C)C)cc2)N(C)C(=O)[C@@H]2CCCN2C1=O (some centres unmarked) [PA 1182, 5δ-{1-[2-(7-Chloroquinolin-4-ylamino)-ethylamino]-methylsulfanyl}pristinamycin IA] ({Picolinoyl(3-OH)}-T[dAbu]P[NMePhe(4-NMe2)][X1][ξPhg]; ester 1-C)

MIC [3]: 0.008 µg/mL (≈ 0.0239 µM)
SMILES: CC1(C)S[C@@H]2[C@H](NC(=O)Cc3ccccc3)C(=O)N2[C@H]1C(=O)O [Penicillin G, reference compound]
MBC [3]: 0.06 µg/mL (≈ 0.179 µM)

The remaining lines, values behind:

SMILES: CC(=O)OCC1=C(C(=O)O)N2C(=O)[C@@H](NC(=O)CNc3ccnc4cc(Cl)ccc34)[C@H]2SC1.Cl [PA 1089, (6R,7R)-3-Acetoxymethyl-7-[2-(7-chloroquinolin-4-ylamino)-acetylamino]-8-oxo-5-thia-1-aza-bicyclo[4.2.0]oct-2-ene-2-carboxylic acid hydrochloride]
Purity of the hybrid molecules (as a percentage) as a function of time (hours) ([1]; time 0 h): 100%
Purity of the hybrid molecules (as a percentage) as a function of time (hours) ([1]; time 1 h): 100%
Purity of the hybrid molecules (as a percentage) as a function of time (hours) ([1]; time 2 h): 100%
Purity of the hybrid molecules (as a percentage) as a function of time (hours) ([1]; time 4 h): 100%
Purity of the hybrid molecules (as a percentage) as a function of time (hours) ([1]; time 6 h): 98%
Purity of the hybrid molecules (as a percentage) as a function of time (hours) ([1]; time 8 h): 97%
Purity of the hybrid molecules (as a percentage) as a function of time (hours) ([1]; time 15 h): 92%
Purity of the hybrid molecules (as a percentage) as a function of time (hours) ([1]; time 24 h): 83%
Purity of the hybrid molecules (as a percentage) as a function of time (hours) ([2]; time 0 h): 100%
Purity of the hybrid molecules (as a percentage) as a function of time (hours) ([2]; time 1 h): 96%
Purity of the hybrid molecules (as a percentage) as a function of time (hours) ([2]; time 2 h): 88%
Purity of the hybrid molecules (as a percentage) as a function of time (hours) ([2]; time 4 h): 81%
Purity of the hybrid molecules (as a percentage) as a function of time (hours) ([2]; time 24 h): 24%
MBC [3, 10]: 0.39 µg/mL
MIC [3, 11]: 0.2 µg/mL
MBC [4]: 0.39 µg/mL
MIC [4]: 0.39 µg/mL
MBC [5]: 0.39 µg/mL
MIC [5]: 0.39 µg/mL
MBC [6]: 12.5 µg/mL
MIC [6]: 6.25 µg/mL
MBC (H. influenzae CIP 102514; H. influenzae CIP 102514, read-out: MBC): > 50 µg/mL
MIC (H. influenzae CIP 102514; [12]): 3.12 µg/mL

SMILES: CC(=O)OCC1=C(C(=O)O)N2C(=O)[C@@H](NC(=O)CNc3ccnc4cc(Cl)ccc34)[C@H]2[S+]([O-])C1 (stereo partly drawn) [PA 1092, (6R,7R-3-Acetoxymethyl-7-[2-7-chloroquinolin-4-ylamino)acetylamino]-5,8-dioxo-5λ^1-thia-1-aza-bicyclo[4.2.0]oct-2-ene-2-carboxylic acid]
MBC [3, 10]: > 50 µg/mL
MIC [3, 11]: 12.5 µg/mL (≈ 24.7 µM)
MBC [4]: 3.12 µg/mL (≈ 6.15 µM)
MIC [4]: 1.56 µg/mL (≈ 3.08 µM)
MBC [5]: 12.5 µg/mL (≈ 24.7 µM)
MIC [5]: 6.25 µg/mL (≈ 12.3 µM)
MBC [6]: > 50 µg/mL
MIC [6]: > 50 µg/mL
MBC (H. influenzae CIP 102514): 50 µg/mL (≈ 98.6 µM)
MIC (H. influenzae CIP 102514): 12.5 µg/mL (≈ 24.7 µM)

SMILES: CCCCCCCCCCCCOS(=O)(=O)[O-].[Na+] [SDS, sodium dodecyl sulfate, reference compound]
% of survival cells compared to the untreated controls ([9]; 7.8 μg/mL): +2.1%
% of survival cells compared to the untreated controls ([9]; 15.6 μg/mL): −7.0%
% of survival cells compared to the untreated controls ([9]; 31.2 μg/mL): −16.4%
% of survival cells compared to the untreated controls ([9]; 62.5 μg/mL): −77.9%
% of survival cells compared to the untreated controls ([9]; 125 μg/mL): −81.2%
% of survival cells compared to the untreated controls ([9]; 250 μg/mL): −81.1%
% of survival cells compared to the untreated controls ([9]; 500 μg/mL): −83.0%
concentration at which the threshold of cytotoxicity (−30%) is exceeded ([9]; human, 18 hr): ≥ 31.2 µg/mL
human lung fibroblast cells killed ([9]; human, 18 hr): more than 80%
